Format in all cases: functional
For assay [1], the target named is T1, Heat shock factor protein 1 (Mus musculus, UniProt P38532).
T1 sequence (P38532 whole entry): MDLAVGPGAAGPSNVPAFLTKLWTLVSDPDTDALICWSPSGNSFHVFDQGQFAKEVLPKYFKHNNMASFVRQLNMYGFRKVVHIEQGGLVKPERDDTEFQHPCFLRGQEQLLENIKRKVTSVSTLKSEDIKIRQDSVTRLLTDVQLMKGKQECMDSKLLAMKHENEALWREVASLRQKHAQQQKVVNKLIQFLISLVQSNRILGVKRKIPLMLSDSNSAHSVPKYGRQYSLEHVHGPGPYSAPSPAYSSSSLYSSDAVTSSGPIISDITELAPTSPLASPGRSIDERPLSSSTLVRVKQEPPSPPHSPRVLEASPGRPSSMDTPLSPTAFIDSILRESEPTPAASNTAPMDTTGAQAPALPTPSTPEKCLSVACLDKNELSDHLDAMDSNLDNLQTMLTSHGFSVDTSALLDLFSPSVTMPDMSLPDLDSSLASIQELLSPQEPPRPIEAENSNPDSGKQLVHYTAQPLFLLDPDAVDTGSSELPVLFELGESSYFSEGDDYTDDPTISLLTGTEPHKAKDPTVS
The experiment in a line: decrease of HSF1-responsive luciferase luminescence – cell-based, NIH3T3, dose retest, confirmation (AID 2382).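 Note: NIH3T3 fibroblasts with HSF1-driven luciferase reporter stressed by proteasome inhibitor MG132; luminescence from HSF1-driven luciferase expression after 8 hours of MG132 stress.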

A further assay concerns the target T2, Protein RecA (Mycobacterium tuberculosis, UniProt P9WHJ3).
T2 sequence (P9WHJ3 whole entry): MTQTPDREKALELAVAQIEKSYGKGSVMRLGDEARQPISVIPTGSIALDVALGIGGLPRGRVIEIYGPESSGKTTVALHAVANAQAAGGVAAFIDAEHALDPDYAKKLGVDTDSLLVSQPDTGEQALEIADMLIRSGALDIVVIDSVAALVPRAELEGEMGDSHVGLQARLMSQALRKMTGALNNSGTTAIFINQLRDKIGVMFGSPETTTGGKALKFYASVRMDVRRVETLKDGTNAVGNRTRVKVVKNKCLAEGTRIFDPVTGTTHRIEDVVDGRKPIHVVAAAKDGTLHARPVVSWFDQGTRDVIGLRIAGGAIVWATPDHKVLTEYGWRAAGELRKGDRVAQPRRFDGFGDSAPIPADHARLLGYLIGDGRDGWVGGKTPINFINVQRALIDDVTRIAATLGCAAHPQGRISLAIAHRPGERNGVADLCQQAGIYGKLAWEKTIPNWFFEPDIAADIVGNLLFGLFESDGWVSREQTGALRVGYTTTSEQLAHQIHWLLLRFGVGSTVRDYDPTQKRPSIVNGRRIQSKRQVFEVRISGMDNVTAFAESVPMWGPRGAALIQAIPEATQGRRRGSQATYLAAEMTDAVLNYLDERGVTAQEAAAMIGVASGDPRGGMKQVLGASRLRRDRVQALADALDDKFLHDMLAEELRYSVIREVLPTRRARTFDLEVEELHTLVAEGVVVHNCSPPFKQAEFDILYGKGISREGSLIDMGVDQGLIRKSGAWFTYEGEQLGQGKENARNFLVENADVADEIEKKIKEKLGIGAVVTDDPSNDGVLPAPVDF
The experiment in a line: Fluorescence Cell-Free Homogeneous Dose Retest to Identify Inhibitors of RecA-Intein Splicing Activity. [Related pubchem assays (depositor defined):AID2097, AID2223, AID489010, AID492950].

Assay [2] addresses T3, Replicative DNA helicase DnaB (Mycobacterium tuberculosis, UniProt P9WMR3).
T3 sequence (P9WMR3 whole entry): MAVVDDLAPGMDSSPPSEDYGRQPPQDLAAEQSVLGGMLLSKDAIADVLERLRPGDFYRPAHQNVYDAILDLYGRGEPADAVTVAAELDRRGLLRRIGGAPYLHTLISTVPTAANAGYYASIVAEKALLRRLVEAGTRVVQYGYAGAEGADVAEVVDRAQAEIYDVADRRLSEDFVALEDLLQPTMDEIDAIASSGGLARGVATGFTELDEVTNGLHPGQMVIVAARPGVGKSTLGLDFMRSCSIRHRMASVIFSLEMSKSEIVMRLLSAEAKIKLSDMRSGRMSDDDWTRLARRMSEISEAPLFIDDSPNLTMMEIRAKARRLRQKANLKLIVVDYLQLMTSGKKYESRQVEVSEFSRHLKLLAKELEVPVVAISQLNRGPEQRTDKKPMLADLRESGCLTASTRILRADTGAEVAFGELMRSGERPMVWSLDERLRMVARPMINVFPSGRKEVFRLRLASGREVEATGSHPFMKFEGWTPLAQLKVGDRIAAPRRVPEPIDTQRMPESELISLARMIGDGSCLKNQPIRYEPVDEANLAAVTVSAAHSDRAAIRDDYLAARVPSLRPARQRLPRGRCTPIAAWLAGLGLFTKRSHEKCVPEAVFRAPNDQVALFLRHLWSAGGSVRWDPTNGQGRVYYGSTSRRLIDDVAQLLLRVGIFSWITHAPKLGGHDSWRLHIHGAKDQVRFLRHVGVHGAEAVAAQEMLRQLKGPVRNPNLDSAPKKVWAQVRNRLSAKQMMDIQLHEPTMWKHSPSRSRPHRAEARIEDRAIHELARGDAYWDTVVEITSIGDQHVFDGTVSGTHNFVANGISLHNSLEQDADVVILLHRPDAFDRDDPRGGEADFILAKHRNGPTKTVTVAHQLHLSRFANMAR
The experiment in a line: DnaB intein splicing inhibitors, dose response, biochemical, cell-free fluorescence (AID 449749).

In another assay the test system is H4. The experiment in a line: Luminescence Cell-Based Dose Response HTS to Identify Activators of 5'UTR Stem-Loop Driven Prion Protein mRNA Translation in H4 Neuroglioblastoma Cells. [Related pubchem assays: 1829 (Project Summary), 1814 (Primary HTS)]. To be noted: Homo sapiens.
Assay [3] in a line: Luminescence Cell-Based Dose Response HTS to Identify Activators of Luciferase Translation or Activity in H4 […] Cells. [Related pubchem assays: 1829 (Project Summary), 1814 (Primary HTS)].
Assay [4] is described as follows: Luminescence Cell-Based Dose Confirmation HTS to Identify Activators of 5'UTR Stem-Loop Driven Alpha-Synuclein mRNA Translation in H4 Neuroglioblastoma Cells. [Related pubchem assays: 1829 (Project Summary), 1814 (Primary HTS)].
For assay [5], the target named is T4, Corticotropin-releasing factor receptor 2/Corticotropin-releasing factor-binding protein (Homo sapiens, UniProt P24387+Q13324).
T4 sequence (Q13324 whole entry): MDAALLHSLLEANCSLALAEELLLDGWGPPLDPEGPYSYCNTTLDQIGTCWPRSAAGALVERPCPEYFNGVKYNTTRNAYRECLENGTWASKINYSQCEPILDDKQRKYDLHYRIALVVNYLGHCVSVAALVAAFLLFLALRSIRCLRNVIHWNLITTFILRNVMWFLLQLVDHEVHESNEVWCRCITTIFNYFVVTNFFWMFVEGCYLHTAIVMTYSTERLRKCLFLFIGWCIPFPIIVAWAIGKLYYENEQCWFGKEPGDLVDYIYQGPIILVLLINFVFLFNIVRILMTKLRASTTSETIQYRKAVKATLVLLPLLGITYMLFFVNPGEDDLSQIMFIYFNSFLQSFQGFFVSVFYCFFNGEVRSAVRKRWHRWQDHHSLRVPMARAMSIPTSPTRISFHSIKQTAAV
T4 sequence (P24387 whole entry): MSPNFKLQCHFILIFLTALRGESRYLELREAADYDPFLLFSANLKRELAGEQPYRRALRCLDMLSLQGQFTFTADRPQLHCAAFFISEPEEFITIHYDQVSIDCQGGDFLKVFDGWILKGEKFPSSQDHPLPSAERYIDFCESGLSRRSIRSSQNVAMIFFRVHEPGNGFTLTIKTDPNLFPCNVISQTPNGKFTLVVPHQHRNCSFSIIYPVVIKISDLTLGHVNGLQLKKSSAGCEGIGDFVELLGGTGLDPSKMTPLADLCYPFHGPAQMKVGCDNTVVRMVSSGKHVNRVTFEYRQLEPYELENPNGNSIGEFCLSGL
The experiment in a line: activators of CRF receptor 2 with binding protein – uHTS hits, confirmation (AID 602473). Particulars: read-out: EC50_Mean.

The target in assay [6] is T4, Corticotropin-releasing factor receptor 2/Corticotropin-releasing factor-binding protein. The experiment in a line: Dose Response confirmation of uHTS hits for small molecule antagonists of the CRF-binding protein and CRF-R2 receptor complex. Particulars: read-out: IC50_Mean.
For another assay, the system named is INS1. The experiment in a line: INS-1E survival protection against cytokine death – cell-based, luminescence, retest, dose response (AID 449756).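 Note: cell death triggered by IL-1 beta plus TNF-alpha plus IFN-gamma mixture; protective hits raise ATP signal compared with cytokine alone wells.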 Particulars: Rattus norvegicus.

The values that follow come from ChEMBL document CHEMBL1201862, “PubChem BioAssay data set” (2004).

The source made the active and inactive calls. Cut-off read from the data, not from the text of the source, for most assays here: actives have a measured EC50 and inactives only a lower limit. Some results are limits rather than exact numbers.

In the case of `CC(=O)Nc1ccc(SCC(=O)N2CCN(S(=O)(=O)c3ccccc3)CC2)cc1`, in assay [1], the EC50 is > 195 µM (not active).
With `O=C(Nc1ccccc1NC(=O)c1csnn1)c1csnn1`, the EC50 in assay [1] was > 195 µM (not active).
On to `CC(C)c1nnc(NC(=O)C2CCN(C(=O)c3ccco3)CC2)s1`, for which the EC50 in [1] is > 195 µM (not active).
Consider `COc1cc(OC)cc(C2C(C#N)=C(N)Oc3[nH]nc(-c4cccnc4)c32)c1` (stereo unspecified), for which the EC50 at Protein RecA was 2.13 µM (active). In assay [2], the AC50 is 18 µM (active).
Regarding `C=CCn1c(SCC(=O)N2CCc3ccccc3C2)nc2sc(C)c(C)c2c1=O`, the EC50 in assay [1] is > 195 µM (not active).
The same measure, in the same setting: to `Cc1cc(C)nc(N=C(N)Nc2ccc3c(c2)OCCO3)n1` belongs > 195 µM (not active).
With `CC(=O)c1ccc(NC(=O)c2cccc(S(=O)(=O)N3CCN(C)CC3)c2)cc1`, the EC50 with H4 was 20.7 µM (active); in [3], 40.6 µM (active); in [4], 15.5 µM (active).
Consider `COc1ccc(-c2ccnc(SCC(=O)N3CCN(c4ccccc4)CC3)n2)cc1`, for which, in assay [5], the EC50 is > 53 µM (inactive). Moreover, the IC50 in assay [6] is > 47.1 µM (inactive). The AC50 in the assay on INS1 is > 260 µM (inactive).
As for `CC(=O)c1ccc(NC(=O)CCc2c(C)nc3ncnn3c2C)cc1`, the EC50 in the assay with H4 is 37.1 µM (active); in assay [3], 8.11 µM (active); in assay [4] it was 73.6 µM (active).
Consider `Cc1cccc(N(C(=O)c2nsc(Cl)c2Cl)C(C(=O)NC2CCCC2)c2ccc(O)cc2)c1` (stereo unspecified), for which the EC50 was > 120 µM (not active) with H4, 1.09 µM (active) in assay [3] and 0.548 µM (active) in assay [4].
Regarding `Cc1ccc(C(=O)N2CCCC(Nc3ccc(F)cc3)C2)cc1C` (stereo unspecified), in [1], the EC50 is reported as > 195 µM (not active).
Take `c1ccc(Cc2nnc3sc(-c4cccs4)nn23)cc1`: the EC50 in [1] is > 195 µM (not active).
With `COc1ccc(N2CCN(c3ccc(NC(=O)NN)cc3)CC2)cc1`, the EC50 in assay [1] is recorded as > 195 µM (not active).
As to `Cc1nn(-c2ccccc2)c(C)c1NC(=O)COc1ccc(Br)cc1Cl`, the half-maximal activity concentration (AC50) in the assay with INS1 is 34.2 µM (active).
Turning to `O=C(Cn1nnc2ccccc21)NNC(=S)NC1CCCCC1`, in assay [1], the EC50 is recorded as > 195 µM (not active).
Turning to `CCOC(=O)C1=C(c2ccccc2)OC(N)=C(C#N)C1C(C)C` (stereo unspecified), the EC50 (in the assay with H4; in assay [3]; in assay [4]) was > 120 µM (not active) throughout.
Consider `Cc1ccc(NC(=O)Cn2nnc3ccccc32)cc1`, for which the EC50 with H4 is 111 µM (active); in assay [3] it was > 120 µM (not active); in assay [4], 17.5 µM (active).
Take `COC(=O)c1ccc(Cn2nnc3c(O)nc(C4CCN(S(=O)(=O)c5ccc(F)cc5)CC4)nc32)cc1`: in assay [1], the EC50 is given as > 195 µM (not active).
For the compound `CCOc1ccc(C(=O)OCC(=O)c2c(N)n(C)c(=O)n(C)c2=O)cc1OCC`, the EC50 was 46.7 µM (inconclusive) in the assay with H4, > 120 µM (not active) in [3] and > 120 µM (not active) in assay [4].
As to `CCOC(=O)c1ccc(Nc2[nH]cnc3ncnc2-3)cc1`, the EC50 in [1] was > 195 µM (not active).
On to `CNCC(O)CN(c1ccccc1)c1ccccc1` (stereo unspecified), for which the EC50 at Protein RecA is 10.8 µM (active). The concentration at half-maximal activity (AC50) in [2] was 34.3 µM (active).
With `COc1cc(/C=N/NC(=S)NC2CC3CC2C2C=CCC32)ccc1O` (stereo unspecified), the EC50 in the assay with H4 was > 120 µM (not active); in assay [3], 69.7 µM (active); in assay [4], > 120 µM (not active).
Take `COc1ccc(/C(O)=C\C=N\c2cc(C)on2)c(OC)c1`: in assay [1], the EC50 is reported as > 195 µM (not active).
